The results in this text go back to US20230150981A1, “N-HETEROARYLALKYL-2-(HETEROCYCLYL AND HETEROCYCLYLMETHYL) ACETAMIDE DERIVATIVES AS SSTR4 AGONISTS” (Takeda Pharmaceutical Compnay Limited, priority 2020, published 2023).

Molecules are shown by their SMILES.

The target in the assay is T1, SSTR4 (Homo sapiens, UniProt P31391).
T1 construct: host or cells: CHO-K1
T1 sequence (P31391 whole entry): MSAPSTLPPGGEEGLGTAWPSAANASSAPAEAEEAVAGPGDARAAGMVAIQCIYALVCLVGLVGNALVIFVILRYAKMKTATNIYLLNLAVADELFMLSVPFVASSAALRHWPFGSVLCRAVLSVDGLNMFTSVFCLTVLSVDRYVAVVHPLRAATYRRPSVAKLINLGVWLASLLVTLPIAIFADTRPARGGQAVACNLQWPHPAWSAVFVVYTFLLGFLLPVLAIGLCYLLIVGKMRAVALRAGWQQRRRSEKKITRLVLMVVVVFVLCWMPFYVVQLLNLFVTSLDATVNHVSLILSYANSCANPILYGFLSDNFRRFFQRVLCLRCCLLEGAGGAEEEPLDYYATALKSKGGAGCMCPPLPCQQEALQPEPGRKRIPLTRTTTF
The assay can be described thus: Inhibition of forskolin stimulated cAMP in CHO-K1 cells overexpressing SSTR4. As to conditions: read-out: SSTR4 Activity pEC50 (converted). In kind it is cell-based. The method, then: Inhibition of Forskolin Stimulated cAMP in Cells Overexpressing SSTR4
This cell-based assay measures the ability of compounds to inhibit forskolin stimulated cAMP in CHO-K1 cells overexpressing SSTR4. CHO-K1 cells overexpressing SSTR4 (CHO-SSTR4) are purchased from DiscoveRx (product code 95-0059C2). The CHO-SSTR4 cells are maintained in F12K media with 10% Fetal Bovine Serum (Hyclone), 1% Pen/Strep (Life Technologies), and 800 μg/mL G418 (Life Technologies). To perform the assay, 3000 cells are plated per well in white 384-well plate (Corning 3570) in 50 μL complete media and the cells are allowed to attach for 16 hours in a 37° C., 5% CO2 incubator. The next day, the culture media is removed from the cells and the cells are washed (added then removed) with Krebs Ringer Buffer (ZenBio, KRB-1000 mL). Test compounds are suspended in DMSO and diluted in stimulation buffer: Krebs Ringer Buffer plus 0.5% BSA (Roche), 300 μM IBMX (Sigma), and 350 nM forskolin (Sigma). The cells are incubated in 10 μL compound/stimulation buffer for 30 minutes at room temperature. Cellular cAMP levels are detected with a HTRF LANCE Ultra cAMP kit (Perkin Elmer, catalog number TRF0264).
The assay is performed in accordance with the manufacturer's instructions. Five μL of diluted Eu-W8044 labeled streptavidin (dilution: 1:50 in cAMP Detection Buffer) is added to each well. Then 5 μL of diluted biotin cAMP (dilution: 1:150 in cAMP Detection Buffer) is added to each well. The plates are covered and allowed to incubate for 60 minutes at room temperature on a shaker. HTRF (665 nm/615 nm) is read on a Perkin Elmer ENVISION plate reader. The pEC50 values are generated using Activity Base for Screening Data Management.
Regarding `Cc1cccnc1OCC(C)(C)NC(=O)[C@H](C)[C@@H]1CCCN1C` (racemic) [Example 66, (R)-N-(2-methyl-1-((3-methylpyridin-2-yl)oxy)propan-2-yl)-2-((S)-1-methylpyrrolidin-2-yl)propanamide and (S)-N-(2-methyl-1-((3-methylpyridin-2-yl)oxy)propan-2-yl)-2-((R)-1-methylpyrrolidin-2-yl)propanamide], the EC50 is 15.8 nM.

Turning to `Cc1cccnc1OCC(C)(C)NC(=O)[C@@H](C)[C@@H]1CCCN1C` (racemic) [Example 67, (S)-N-(2-methyl-1-((3-methylpyridin-2-yl)oxy)propan-2-yl)-2-((S)-1-methylpyrrolidin-2-yl)propanamide and (R)-N-(2-methyl-1-((3-methylpyridin-2-yl)oxy)propan-2-yl)-2-((R)-1-methylpyrrolidin-2-yl)propanamide], the EC50 was 1.58 nM.

With `COc1ccccc1C(C)(C)NC(=O)[C@@H](C)CN1CCCC1` (single isomer, unassigned) [Example 76], the EC50 is 631 nM.

On to `Cc1cccnc1OCC1(NC(=O)[C@@H](C)[C@H]2CCCN2C)CC1` (single isomer, unassigned) [Example 126], for which the EC50 is 398 nM.

As for `CN1CCC[C@H]1CC(=O)NC(C)(C)[C@H]1CCc2ccccc2O1` (single isomer, unassigned) [Example 129], the EC50 is 398 nM.

As to `CN1CCC[C@@H]1CC(=O)NC(C)(C)[C@H]1CCc2ccccc2O1` (single isomer, unassigned) [Example 130], the EC50 was 316 nM.

As for `C[C@H](CN1CCC1)C(=O)NC(C)(C)c1ccccc1Cl` (single isomer, unassigned) [Example 133], the EC50 is 200 nM.

As to `C[C@@H](CN1CCCC1)C(=O)NC(C)(C)c1ccccc1Cl` (single isomer, unassigned) [Example 137], the EC50 is 316 nM.

As for `COc1ccc(C(C)(C)NC(=O)[C@@H](C)CN2CCC2)cc1` (single isomer, unassigned) [Example 139], the EC50 was 1260 nM.

Take `Cc1ccccc1C(C)(C)NC(=O)[C@@H](C)CN1CCC1` (single isomer, unassigned) [Example 141]: the EC50 is 398 nM.

On to `Cc1c(F)cccc1C(C)(C)NC(=O)[C@@H](C)CN1CCC1` (single isomer, unassigned) [Example 143], for which the EC50 was 200 nM.

Take `Cc1cccc(C(C)(C)NC(=O)[C@H](C)CN2CCC2)c1Cl` (single isomer, unassigned) [Example 144]: the EC50 was 100 nM.

Regarding `Cc1ccc(C(C)(C)NC(=O)[C@H](C)CN2CCC2)cc1` (single isomer, unassigned) [Example 148], the EC50 is 501 nM.

In the case of `C[C@H](CN1CCC1)C(=O)NC(C)(C)c1cccc(F)c1` (single isomer, unassigned) [Example 152], the EC50 is 1000 nM.

In the case of `C[C@H](CN1CCC1)C(=O)NC(C)(C)c1ccc(Cl)cc1` (single isomer, unassigned) [Example 154], the EC50 was 1260 nM.

As for `C[C@@H](CN1CCC1)C(=O)NC(C)(C)c1ccccc1F` (single isomer, unassigned) [Example 157], the EC50 is 2510 nM.

For `O=C(CCN1CCC1)N[C@@H](c1cc(F)ccc1F)C(F)F` (single isomer, unassigned) [Example 168], the EC50 was above 5010 nM.

For `COc1c(F)cccc1C(C)(C)NC(=O)[C@@H](C)CN1CCC1` (single isomer, unassigned) [Example 172], the EC50 is 251 nM.

Consider `Cc1ccc([C@@H](CF)NC(=O)CCN2CCC2)cc1` (single isomer, unassigned) [Example 174], for which the EC50 is above 10000 nM.

As for `Cc1cccnc1OCC1(NC(=O)[C@@H](C)[C@@H]2CCCN2C)CC1` (single isomer, unassigned) [Example 176], the EC50 is 126 nM.

As for `Cc1cccnc1OCC1(NC(=O)[C@H](C)[C@H]2CCCN2C)CC1` (single isomer, unassigned) [Example 177], the EC50 is above 10000 nM.

With `CC[C@@H](CN1CCC1)C(=O)NC(C)(C)c1cccc(F)c1` (single isomer, unassigned) [Example 185], the EC50 is 79.4 nM.

As for `CC[C@H](CN1CCC1)C(=O)NC(C)(C)c1ccc(C)cc1` (single isomer, unassigned) [Example 186], the EC50 was 200 nM.

With `O=C(CCN1CCCC1)N[C@@H](c1cccc(Cl)c1)C(F)F` (single isomer, unassigned) [Example 197], the EC50 was 2000 nM.

On to `CC[C@H](CN1CCC1)C(=O)NC(C)(C)c1ccccc1F` (single isomer, unassigned) [Example 199], for which the EC50 was above 10000 nM.

As for `C[C@@H](CN1CCC1)C(=O)N[C@@H](CF)c1ccccc1` (single isomer, unassigned) [Example 206], the EC50 is 200 nM.

As for `Cn1nc(C(C)(C)NC(=O)CC23CCCN2CCC3)c2ccccc21` [Example 10, N-(2-(1-methyl-1H-indazol-3-yl)propan-2-yl)-2-(tetrahydro-1H-pyrrolizin-7a(5H)-yl)acetamide], the EC50 was 200 nM.

Turning to `CN1CCCC1CC(=O)NC(C)(C)c1cccc(Cl)c1` (stereo not drawn) [Example 12, N-(2-(3-chlorophenyl)propan-2-yl)-2-(1-methylpyrrolidin-2-yl)acetamide], the EC50 was 126 nM.

As to `CN1Cc2ccccc2C[C@H]1CC(=O)NC(C)(C)c1nccc2ccccc12` [Example 20, (S)-N-(2-(isoquinolin-1-yl)propan-2-yl)-2-(2-methyl-1,2,3,4-tetrahydroisoquinolin-3-yl)acetamide], the EC50 was 2000 nM.

In the case of `CN1CCCC1CC(=O)NC(C)(C)c1nccc2occc12` (stereo not drawn) [Example 25, N-(2-(furo[3,2-c]pyridin-4-yl)propan-2-yl)-2-(1-methylpyrrolidin-2-yl)acetamide], the EC50 is 79.4 nM.

As for `CN1CCCCC1CC(=O)NC(C)(C)c1nccc2c1cnn2C` (stereo not drawn) [Example 26, N-(2-(1-methyl-1H-pyrazolo[4,3-c]pyridin-4-yl)propan-2-yl)-2-(1-methylpiperidin-2-yl)acetamide], the EC50 was 2510 nM.

For the compound `CN1CCCCC1CC(=O)NC(C)(C)COc1ncccc1C(F)(F)F` (stereo not drawn) [Example 29, N-(2-methyl-1-((3-(trifluoromethyl)pyridin-2-yl)oxy)propan-2-yl)-2-(1-methylpiperidin-2-yl)acetamide], the EC50 is 100 nM.

With `C[C@H](NC(=O)C[C@@H]1CCCN1C)c1ccc(Cl)cc1` [Example 31, N-((S)-1-(4-chlorophenyl)ethyl)-2-((S)-1-methylpyrrolidin-2-yl)acetamide], the EC50 was 316 nM.

As to `C[C@H](NC(=O)C[C@@H]1CCCN1C)c1ccc(F)cc1` [Example 32, N-((S)-1-(4-fluorophenyl)ethyl)-2-((S)-1-methylpyrrolidin-2-yl)acetamide], the EC50 is 501 nM.

Take `CN1CCC[C@H]1CC(=O)NC(C)(C)c1cc(Cl)ccc1Cl` [Example 33, (S)-N-(2-(2,5-dichlorophenyl)propan-2-yl)-2-(1-methylpyrrolidin-2-yl)acetamide]: the EC50 was 79.4 nM.

On to `C[C@H](NC(=O)C[C@H]1CCCN1C)c1ccc(Cl)cc1` [Example 36, N-((S)-1-(4-chlorophenyl)ethyl)-2-((R)-1-methylpyrrolidin-2-yl)acetamide], for which the EC50 was 501 nM.

Turning to `C[C@H](NC(=O)C[C@H]1CCCN1C)c1ccc(F)cc1` [Example 37, N-((S)-1-(4-fluorophenyl)ethyl)-2-((R)-1-methylpyrrolidin-2-yl)acetamide], the EC50 is 1000 nM.

As to `CCN1CCC[C@H]1CC(=O)NC(C)(C)COc1ncccc1C(F)(F)F` [Example 51, (S)-2-(1-ethylpyrrolidin-2-yl)-N-(2-methyl-1-((3-(trifluoromethyl)pyridin-2-yl)oxy)propan-2-yl)acetamide], the EC50 was 126 nM.

Take `CC(C)(COc1ncccc1C(F)(F)F)NC(=O)C[C@@H]1CCCN1CCF` [Example 52, (S)-2-(1-(2-fluoroethyl)pyrrolidin-2-yl)-N-(2-methyl-1-((3-(trifluoromethyl)pyridin-2-yl)oxy)propan-2-yl)acetamide]: the EC50 was 501 nM.

Take `CC(C)(COc1ncccc1C(F)(F)F)NC(=O)C[C@@H]1CCCN1C1CC1` [Example 53, (S)-2-(1-cyclopropylpyrrolidin-2-yl)-N-(2-methyl-1-((3-(trifluoromethyl)pyridin-2-yl)oxy)propan-2-yl)acetamide]: the EC50 is 63.1 nM.

Consider `Cc1cccnc1OCC1(NC(=O)C[C@@H]2CCCN2C)CC1` [Example 54, (S)-N-(1-(((3-methylpyridin-2-yl)oxy)methyl)cyclopropyl)-2-(1-methylpyrrolidin-2-yl)acetamide], for which the EC50 is 251 nM.

With `Cc1cccnc1OCC1(NC(=O)C[C@@H]2CCCN2C)CCCC1` [Example 56, (S)-N-(1-(((3-methylpyridin-2-yl)oxy)methyl)cyclopentyl)-2-(1-methylpyrrolidin-2-yl)acetamide], the EC50 was 200 nM.
